Read-outs that look alike come from different tables or passages of the source.
Key:
Test in all cases: Kinase profile (33P ATP filter binding)
Type in all cases: biochemical
RSK2 = RSK2 (Homo sapiens, UniProt P51812); conditions: read-out: Remaining protein kinase activity
PKBa = PKBa (Homo sapiens, UniProt P31749); conditions: read-out: Remaining protein kinase activity
OSR1 = OSR1 (Homo sapiens, UniProt O95747); conditions: read-out: Remaining protein kinase activity
MARK4 = biological target: T1, MARK4 (Homo sapiens, UniProt Q96L34)
T1 sequence (Q96L34 1-752): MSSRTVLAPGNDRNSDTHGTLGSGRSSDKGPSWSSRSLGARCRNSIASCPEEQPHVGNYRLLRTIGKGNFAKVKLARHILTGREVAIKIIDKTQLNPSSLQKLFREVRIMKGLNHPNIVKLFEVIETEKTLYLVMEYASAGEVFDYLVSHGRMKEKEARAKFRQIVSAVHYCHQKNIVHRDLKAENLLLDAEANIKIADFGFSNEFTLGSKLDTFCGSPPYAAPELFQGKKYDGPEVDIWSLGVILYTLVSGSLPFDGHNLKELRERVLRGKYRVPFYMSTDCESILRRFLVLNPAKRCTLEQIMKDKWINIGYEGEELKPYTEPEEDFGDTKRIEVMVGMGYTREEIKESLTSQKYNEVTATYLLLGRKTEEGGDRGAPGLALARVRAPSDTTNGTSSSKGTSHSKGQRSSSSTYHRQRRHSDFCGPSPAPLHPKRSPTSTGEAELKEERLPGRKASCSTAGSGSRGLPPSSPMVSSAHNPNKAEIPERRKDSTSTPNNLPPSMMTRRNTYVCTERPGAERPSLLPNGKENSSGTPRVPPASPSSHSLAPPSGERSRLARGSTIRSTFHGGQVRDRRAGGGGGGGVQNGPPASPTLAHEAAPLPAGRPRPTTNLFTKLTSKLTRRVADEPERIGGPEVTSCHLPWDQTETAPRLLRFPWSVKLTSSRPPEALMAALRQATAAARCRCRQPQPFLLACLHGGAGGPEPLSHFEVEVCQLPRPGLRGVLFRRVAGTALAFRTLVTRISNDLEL

TESK1 = TESK1 (Homo sapiens, UniProt Q15569); conditions: read-out: Remaining protein kinase activity
TESK1, sequence (Q15569 whole entry): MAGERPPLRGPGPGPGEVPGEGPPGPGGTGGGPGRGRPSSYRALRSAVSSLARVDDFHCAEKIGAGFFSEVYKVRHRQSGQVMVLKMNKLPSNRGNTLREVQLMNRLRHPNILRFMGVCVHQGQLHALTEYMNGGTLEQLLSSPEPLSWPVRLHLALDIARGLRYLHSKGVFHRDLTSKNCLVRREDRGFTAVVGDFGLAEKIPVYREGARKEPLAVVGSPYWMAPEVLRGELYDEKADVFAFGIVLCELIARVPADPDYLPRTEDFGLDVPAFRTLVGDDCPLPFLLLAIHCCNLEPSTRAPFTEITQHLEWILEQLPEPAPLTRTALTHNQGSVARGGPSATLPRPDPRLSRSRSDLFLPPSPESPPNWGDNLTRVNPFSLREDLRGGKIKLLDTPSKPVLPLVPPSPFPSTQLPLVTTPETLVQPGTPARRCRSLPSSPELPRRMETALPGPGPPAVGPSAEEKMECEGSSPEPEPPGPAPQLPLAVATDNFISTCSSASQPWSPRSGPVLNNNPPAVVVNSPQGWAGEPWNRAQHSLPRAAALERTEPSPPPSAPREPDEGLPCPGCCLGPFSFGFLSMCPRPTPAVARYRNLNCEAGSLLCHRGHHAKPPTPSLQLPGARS

MST2 = biological target: T2, MST2 (Homo sapiens, UniProt Q13188); conditions: read-out: Remaining protein kinase activity
T2 sequence (Q13188 1-491): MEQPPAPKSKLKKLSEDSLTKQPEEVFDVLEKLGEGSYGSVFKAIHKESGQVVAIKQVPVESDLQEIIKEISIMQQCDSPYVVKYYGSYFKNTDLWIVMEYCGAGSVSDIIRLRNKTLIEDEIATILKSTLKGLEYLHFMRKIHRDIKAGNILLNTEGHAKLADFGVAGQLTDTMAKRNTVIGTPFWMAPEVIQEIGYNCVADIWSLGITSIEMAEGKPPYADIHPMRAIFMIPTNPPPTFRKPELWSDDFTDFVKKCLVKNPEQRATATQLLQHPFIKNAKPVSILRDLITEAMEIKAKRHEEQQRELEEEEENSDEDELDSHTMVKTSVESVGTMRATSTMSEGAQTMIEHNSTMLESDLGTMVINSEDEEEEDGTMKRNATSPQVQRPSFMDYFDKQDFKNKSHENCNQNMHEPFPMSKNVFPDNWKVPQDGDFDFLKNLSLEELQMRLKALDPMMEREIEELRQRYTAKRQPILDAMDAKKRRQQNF

IKKe = biological target: T3, IKKe (Homo sapiens, UniProt Q14164); conditions: read-out: Remaining protein kinase activity
T3 sequence (Q14164 1-716): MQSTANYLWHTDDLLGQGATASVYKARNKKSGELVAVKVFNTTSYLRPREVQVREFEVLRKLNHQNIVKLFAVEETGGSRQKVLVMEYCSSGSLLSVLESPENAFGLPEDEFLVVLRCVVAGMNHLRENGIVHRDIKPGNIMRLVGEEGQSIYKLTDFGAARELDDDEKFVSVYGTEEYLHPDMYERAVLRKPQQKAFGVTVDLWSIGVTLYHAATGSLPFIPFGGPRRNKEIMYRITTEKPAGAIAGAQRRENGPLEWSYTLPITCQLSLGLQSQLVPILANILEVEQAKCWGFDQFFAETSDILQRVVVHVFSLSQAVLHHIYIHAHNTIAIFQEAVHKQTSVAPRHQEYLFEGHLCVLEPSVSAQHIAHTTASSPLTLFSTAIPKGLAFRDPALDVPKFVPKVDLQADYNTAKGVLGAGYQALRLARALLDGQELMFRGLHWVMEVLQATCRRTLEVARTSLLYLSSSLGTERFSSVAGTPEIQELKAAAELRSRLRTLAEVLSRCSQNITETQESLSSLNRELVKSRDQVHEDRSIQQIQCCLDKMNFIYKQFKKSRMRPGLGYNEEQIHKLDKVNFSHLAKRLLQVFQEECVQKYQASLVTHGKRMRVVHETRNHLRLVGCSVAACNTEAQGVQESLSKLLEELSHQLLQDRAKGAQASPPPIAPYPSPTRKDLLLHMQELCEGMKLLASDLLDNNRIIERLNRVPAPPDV

OSR1, sequence (O95747 whole entry): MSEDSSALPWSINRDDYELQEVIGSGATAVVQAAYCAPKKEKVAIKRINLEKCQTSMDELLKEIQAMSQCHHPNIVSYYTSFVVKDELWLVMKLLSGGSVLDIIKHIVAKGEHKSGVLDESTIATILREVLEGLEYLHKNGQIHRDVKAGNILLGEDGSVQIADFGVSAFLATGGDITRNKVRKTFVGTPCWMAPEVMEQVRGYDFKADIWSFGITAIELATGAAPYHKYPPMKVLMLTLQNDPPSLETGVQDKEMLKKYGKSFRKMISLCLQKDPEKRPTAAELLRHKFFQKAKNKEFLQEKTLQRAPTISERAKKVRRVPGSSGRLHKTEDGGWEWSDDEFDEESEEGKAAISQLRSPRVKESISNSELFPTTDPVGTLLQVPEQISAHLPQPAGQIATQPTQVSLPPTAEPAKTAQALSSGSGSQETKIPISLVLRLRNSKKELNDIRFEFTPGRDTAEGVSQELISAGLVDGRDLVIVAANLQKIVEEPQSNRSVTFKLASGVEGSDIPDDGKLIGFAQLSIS
PKBa, sequence (P31749 whole entry): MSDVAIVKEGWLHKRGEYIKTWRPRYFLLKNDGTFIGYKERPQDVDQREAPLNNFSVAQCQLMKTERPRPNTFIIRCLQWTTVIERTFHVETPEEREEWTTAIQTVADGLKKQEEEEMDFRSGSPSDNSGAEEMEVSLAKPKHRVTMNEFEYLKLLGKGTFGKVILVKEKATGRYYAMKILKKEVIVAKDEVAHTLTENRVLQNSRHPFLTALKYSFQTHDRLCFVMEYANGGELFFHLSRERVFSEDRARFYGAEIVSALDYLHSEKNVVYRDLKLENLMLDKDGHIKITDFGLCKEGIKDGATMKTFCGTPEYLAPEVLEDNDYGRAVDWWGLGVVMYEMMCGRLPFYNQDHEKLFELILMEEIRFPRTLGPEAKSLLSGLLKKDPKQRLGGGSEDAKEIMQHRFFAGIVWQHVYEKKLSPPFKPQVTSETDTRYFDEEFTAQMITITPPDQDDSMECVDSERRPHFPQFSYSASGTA
RSK2, sequence (P51812 whole entry, species assumed): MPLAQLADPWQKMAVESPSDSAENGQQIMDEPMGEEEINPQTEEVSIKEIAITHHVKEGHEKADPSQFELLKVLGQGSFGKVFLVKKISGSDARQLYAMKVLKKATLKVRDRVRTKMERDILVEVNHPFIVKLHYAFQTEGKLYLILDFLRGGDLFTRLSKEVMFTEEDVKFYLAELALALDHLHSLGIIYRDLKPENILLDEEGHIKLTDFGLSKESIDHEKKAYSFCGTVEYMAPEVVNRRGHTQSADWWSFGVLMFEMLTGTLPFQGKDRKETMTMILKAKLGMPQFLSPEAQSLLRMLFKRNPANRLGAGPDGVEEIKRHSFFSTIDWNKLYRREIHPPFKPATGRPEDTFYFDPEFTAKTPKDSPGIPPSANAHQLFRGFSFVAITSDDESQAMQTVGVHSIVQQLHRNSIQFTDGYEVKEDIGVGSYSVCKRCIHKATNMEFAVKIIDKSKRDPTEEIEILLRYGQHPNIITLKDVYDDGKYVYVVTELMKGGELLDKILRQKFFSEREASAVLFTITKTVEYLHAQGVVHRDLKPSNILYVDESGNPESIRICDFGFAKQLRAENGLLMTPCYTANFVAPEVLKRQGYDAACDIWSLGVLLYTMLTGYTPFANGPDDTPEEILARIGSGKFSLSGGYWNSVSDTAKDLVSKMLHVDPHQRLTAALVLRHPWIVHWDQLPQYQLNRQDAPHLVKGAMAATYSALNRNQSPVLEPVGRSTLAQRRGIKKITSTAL

Work on COc1ccc2sc(-c3cncc(NC(C)=O)c3)nc2c1 [PST-001, N-(5-(5-Methoxybenzo[d]thiazol-2-yl)pyridin-3-yl)acetamide] yielded a remaining activity at 1 µM (RSK2) of 113%, a remaining activity at 100 µM (RSK2) of 100% and a remaining activity at 1 µM (PKBa) of 116%. For the same molecule, the remaining activity at 100 µM (PKBa) was 106%, the remaining activity at 1 µM (OSR1) was 120% and the remaining activity at 100 µM (OSR1) was 136%. The “Remaining protein kinase activity” value (MARK4; 1 μM) was 121%, the “Remaining protein kinase activity” value (MARK4; 100 μM) was 103% and the remaining activity at 1 µM (TESK1) was 105%. For the same molecule, the remaining activity at 100 µM (TESK1) was 85%, the remaining activity at 1 µM (MST2) was 120% and the remaining activity at 100 µM (MST2) was 54%. It also gave a remaining activity at 1 µM (IKKe) of 105% and a remaining activity at 100 µM (IKKe) of 122%.
With COc1ccc2sc(-c3cncc(N)c3)nc2c1 [compound 1, 5-(5-Methoxybenzo[d]thiazol-2-yl)pyridin-3-amine] the remaining activity at 1 µM (RSK2; RSK2, 1 μM) was 115%, the remaining activity at 100 µM (RSK2; RSK2, 100 μM) was 56% and the remaining activity at 1 µM (PKBa; PKBa, 1 μM) was 120%. It also gave a remaining activity at 100 µM (PKBa; PKBa, 100 μM) of 72%, a remaining activity at 1 µM (OSR1; OSR1, 1 μM) of 128% and a remaining activity at 100 µM (OSR1; OSR1, 100 μM) of 111%. The “Remaining protein kinase activity” value (MARK4; 1 μM) was 131%, the “Remaining protein kinase activity” value (MARK4; 100 μM) was 58% and the remaining activity at 1 µM (TESK1; TESK1, 1 μM) was 110%. The remaining activity at 100 µM (TESK1; TESK1, 100 μM) was 28%, the remaining activity at 1 µM (MST2; MST2, 1 μM) was 124% and the remaining activity at 100 µM (MST2; MST2, 100 μM) was 32%. For the same molecule, the remaining activity at 1 µM (IKKe; IKKe, 1 μM) was 110% and the remaining activity at 100 µM (IKKe; IKKe, 100 μM) was 55%.

— article PMC8617627, “Novel DYRK1A Inhibitor Rescues Learning and Memory Deficits in a Mouse Model of Down Syndrome” (Pharmaceuticals, 2021)
